In patent publication US5198445A, “Composition and use of substituted 3-thio-2-propynenitriles as industrial antimicrobials” (The Dow Chemical Company, priority 1992, dated 1993):
≈ marks a conversion by molar mass, not a printed value. Where two headings read alike, the source gives them in different places.

How the values were obtained:
[1] = test system: Enterobacter aerogenes (Ea); experiment: MIC in nutrient agar, Enterobacter aerogenes; assay type: cell-based, Enterobacter aerogenes ATCC 13048
Method: (§1) The minimum inhibitory concentration (MIC) for the compounds listed in Table I is determined for 9 bacteria, using nutrient agar, and 7 yeast and fungi, using malt yeast agar. A one percent solution of the test compound is prepared in a mixture of acetone and water. Nutrient agar is prepared at pH 6.8, representing a neutral medium, and at pH 8.2, representing an alkaline medium. The nutrient agars are prepared by adding 23 g of nutrient agar to one-liter of deionized water. In addition, the alkaline medium is prepared by adjusting a 0.04M solution of N-[tris-(hydroxymethyl)methyl]-glycine buffered deionized water with concentrated sodium hydroxide to a pH of […]. Malt yeast agar is prepared by adding 3 g yeast extract and 45 g malt agar per liter of deionized water. The specific agar is dispensed in 30 ml aliquots into 25×200 mm test tubes, capped and autoclaved for 15 minutes at 115° C. The test tubes containing the agar are cooled in a water bath until the temperature of the agar is 48° C. Then, an appropriate amount of the one percent solution of the test compound is added (except in the controls where no compound is added) to the respective test tubes so that the final concentrations are 500, 250, 100, 50, 25, 10, 5, 2.5, 1.0 and zero parts per million of the test compound in the agar, thus having a known concentration of test compound dispersed therein. The contents of the test tubes are then transferred to respective petri plates. After drying for 24 hours, the petri plates containing nutrient agar are inoculated with bacteria and those containing malt yeast agar are inoculated with yeast and fungi.
(§2) The inoculation with bacteria is accomplished by using the following procedure. Twenty-four hour-cultures of each of the bacteria are prepared by incubating the respective bacteria in tubes containing nutrient broth for 24 hours at 30° C. in a shaker. Dilutions of each of the 24 hour-cultures are made so that nine separate suspensions (one for each of the nine test bacteria) are made, each containing 10^8 colony forming units (CFU) per ml of suspension of a particular bacteria. Aliquots of 0.3 ml of each of the bacterial suspensions are used to fill the individual wells of Steer's Replicator. For each microbial suspension, 0.3 ml was used to fill three wells (i.e., three wells of 0.3 ml each) so that for the nine different bacteria, 27 wells are filled. The Steer's Replicator is then used to inoculate both the neutral and alkaline pH nutrient agar petri plates.
(§3) The inoculated petri plates are incubated at 30° C. for 48 hours and then read to determine if the test compound which is incorporated into the agar prevented growth of the respective bacteria.
(§4) Table II lists the bacteria, yeast and fungi used in the MIC test described above along with their respective American Type Culture Collection (ATCC) identification numbers.
(§5) The following MIC and MEC antimicrobial tests, whose results are shown in Tables XIII-XVII, are performed using the same methods as described hereinabove.

[2] = test system: mixture of the bacterial organisms listed in Table II; experiment: Multiple Challenge Test in tape joint formulation; assay type: cell-based, bacteria listed in Table II; settings: 10 challenges
Method: Additionally, the ability of the compounds of Table I to serve as preservatives in a variety of formulated industrial, household, and commercial products is tested using a Multiple Challenge Test Protocol. In this test, the formulations include a styrene-butadiene latex, a tape joint, a hand lotion, and a shampoo. The styrene-butadiene latex test formulation used is Latex DL 238A, available from The Dow Chemical Company. The compositions of the tape joint, hand lotion and shampoo test formulations can be found in Tables V-VII.
(§6) The formulations are separated into 50 g aliquots and placed in sterile bottles. An appropriate amount of a fresh one percent stock solution of the test compound in acetone-water is added to achieve the desired final concentrations. A small portion of each of the test formulations is streaked onto Tryptic Soy Agar (TSA) petri plates using sterile cotton swabs to ensure that the formulations are sterile. If the formulation is sterile, then it is inoculated with 0.1 ml of a mixture of equal aliquots of the 24 hour cultures of each of the bacterial organisms listed in Table II. The test formulations are then incubated at 30° C. After 24 hours, each sample is streaked onto a TSA petri plate using a sterile swab. All plates are then incubated at 30° C. for 48 hours and then rated for microbial growth using the rating system listed in Table VIII. Samples with a rating of 3 or less are reinoculated as described in the procedure for the first inoculation. Samples with a rating of 4 or greater are not reinoculated but after another 24 hours are restreaked on TSA agar.
The normal interpretation of the results is that a concentration of the antimicrobial being tested is considered to be effective if no ratings greater than a 3 are observed throughout the 10 challenges. The Minimum Effective Concentration (MEC), which is used to compare the activity of the antimicrobial additives in the end-use formulations, is the minimum level that is effective under the conditions of the Multiple Challenge Test.

[3] = test system: Pseudomonas aeruginosa (Pa); experiment: MIC in nutrient agar, Pseudomonas aeruginosa; assay type: cell-based, Pseudomonas aeruginosa ATCC 10145
Method: as §1, §2, §3, §4, §5

[4] = test system: mixture of the bacterial organisms listed in Table II; experiment: MEC in tape joint formulation after 3 months storage; assay type: cell-based, bacteria listed in Table II; settings: 2190 h, pH between 5 and 7, after 3 months storage at room temperature
Method: as §6
(§7) The normal interpretation of the results is that a concentration of the antimicrobial being tested is considered to be effective if no ratings greater than a 3 are observed throughout the 10 challenges. […]

[5] = test system: mixture of the bacterial organisms listed in Table II; experiment: MEC in paint formulation after 1 month storage; assay type: cell-based, bacteria listed in Table II; settings: 730 h, pH between 7 and 9, after 1 month storage at room temperature
Method: as §6, §7

[6] = Stability of 3-thio-2-propynenitriles at pH 7 or above / in basic solution; assay type: physicochemical; settings: basic solution / pH of 7 or above
Source text: It has also been discovered that the compounds of the present invention may degrade at a pH of 7 or above over an extended time period to compounds which are less antimicrobially active than the original compounds of the present invention.

[7] = Klebsiella aerogenes, pH 6.8, read-out: Minimum Inhibitory Concentration, Ea
[8] = Klebsiella aerogenes, pH 8.2; read-out: Minimum Inhibitory Concentration, Ea
[9] = Klebsiella aerogenes, pH 6.8; read-out: Minimum Inhibitory Concentration, Ea
[10] = pH 8.2, read-out: Minimum Inhibitory Concentration, Pa

| Structure (SMILES) | MIC [1, 7] [µg/mL] | MIC [1, 8] [µg/mL] | MEC [2] [ppm] | MIC [1, 9] [µg/mL] | MIC [3, 10] [µg/mL] | minimal effective concentration [4] [µg/mL] | minimal effective concentration [5] [µg/mL] | stability [6] | MIC ([1]; Klebsiella aerogenes, pH 8.2, read-out: Minimum Inhibitory Concentration, Ea) [µg/mL] | MIC ([3]; pH 6.8, read-out: Minimum Inhibitory Concentration, Pa) [µg/mL] |
| --- | --- | --- | --- | --- | --- | --- | --- | --- | --- | --- |
| CCSC#CC#N [B, 3-ethylthio-2-propynenitrile] | 25 (≈ 225 µM) | 25 (≈ 225 µM) | 25 | – | – | – | – | – | – | – |
| N#CC#CSC1CCCC1 [C, 3-cyclopentylthio-2-propynenitrile] | – | 100 (≈ 661 µM) | 100 | 100 (≈ 661 µM) | – | – | – | – | – | – |
| CSC#CC#N [Compound A, 3-methylthio-2-propynenitrile] | – | 25 (≈ 257 µM) | 10 | 2.5 (≈ 25.7 µM) | 2.5 (≈ 25.7 µM) | > 50 | > 50 | observed to decompose in a basic solution to several compounds | – | – |
| CSC=C(Cl)C#N [Compound G, 2-chloro-3-(methylthio)-2-propenenitrile] | 50 (≈ 374 µM) | – | – | – | 5 (≈ 37.4 µM) | > 50 | – | – | 10 (≈ 74.8 µM) | 50 (≈ 374 µM) |
| N#CC#CSc1ccc(Cl)cc1 [D, 3-(4-chlorophenylthio)-2-propynenitrile] | – | 50 (≈ 258 µM) | 100 | < 10 | – | – | – | – | – | – |
